Entries after “also recorded” stand apart in the source; their conditions may differ.
Target: ABCB1 (P-glycoprotein) in Colo 320 colonic adenocarcinoma cells (Homo sapiens, UniProt P08183)
Test: ABCB1 inhibition, rhodamine 123 accumulation by flow cytometry
Conditions: 0.2 µM
Method: The inhibition of the ABCB1 multidrug efflux pump ABCB1 by the tested compounds was evaluated using flow cytometry, measuring the retention of rhodamine 123 by ABCB1 (P-glycoprotein) in Colo 320 colonic adenocarcinoma cells. Briefly, the cell number of colonic adenocarcinoma cells were adjusted to 2 × 10^6 cells/mL, re-suspended in serum-free RPMI-1640 medium in the case of colonic adenocarcinoma cells, and distributed in 0.5 mL aliquots into Eppendorf centrifuge tubes. The tested compounds were added at different concentrations (0.2 and 2 µM; from 1 and 10 mM stock solutions, respectively), and the samples were incubated for 10 min at room temperature. Tariquidar was applied as the positive control (0.2 µM final concentration), and DMSO was used as the solvent control (at 2 v/v%). Next, 10 µL (5.2 µM final concentration) of the fluorochrome rhodamine 123 (Sigma, St. Louis, MO, USA) was added to the samples and the cells were incubated for 20 min at 37 °C. After the incubation period, the cells were washed twice and re-suspended in 0.5 mL PBS for analysis. The fluorescence of the gated cell population was measured with a Partec CyFlow® flow cytometer (Partec, Münster, Germany). The percentage of the mean fluorescence intensity was calculated for the treated MDR cells as compared with the untreated cells. The results were obtained from a representative flow cytometry experiment in which at least 20,000 individual cells of the overall population were evaluated for the rhodamine 123 retained inside the cells. The fluorescence activity ratio (FAR) was calculated based on the following equation, which relates the measured fluorescence values: FAR=Colo320treated / Colo320control/Colo205treated / Colo205control
The parameters evaluated from flow cytometry experiments were: Forward Scatter Count (FSC, provides information about cell size); Side Scatter Count (SSC, proportional to cell granularity or internal complexity); FL-1 (Mean fluorescence of the cells), and Fluorescence Activity Ratio (FAR), which was calculated by the equation given above.

Chain of ABCB1 (P-glycoprotein) in Colo 320 colonic adenocarcinoma cells (P08183 whole entry): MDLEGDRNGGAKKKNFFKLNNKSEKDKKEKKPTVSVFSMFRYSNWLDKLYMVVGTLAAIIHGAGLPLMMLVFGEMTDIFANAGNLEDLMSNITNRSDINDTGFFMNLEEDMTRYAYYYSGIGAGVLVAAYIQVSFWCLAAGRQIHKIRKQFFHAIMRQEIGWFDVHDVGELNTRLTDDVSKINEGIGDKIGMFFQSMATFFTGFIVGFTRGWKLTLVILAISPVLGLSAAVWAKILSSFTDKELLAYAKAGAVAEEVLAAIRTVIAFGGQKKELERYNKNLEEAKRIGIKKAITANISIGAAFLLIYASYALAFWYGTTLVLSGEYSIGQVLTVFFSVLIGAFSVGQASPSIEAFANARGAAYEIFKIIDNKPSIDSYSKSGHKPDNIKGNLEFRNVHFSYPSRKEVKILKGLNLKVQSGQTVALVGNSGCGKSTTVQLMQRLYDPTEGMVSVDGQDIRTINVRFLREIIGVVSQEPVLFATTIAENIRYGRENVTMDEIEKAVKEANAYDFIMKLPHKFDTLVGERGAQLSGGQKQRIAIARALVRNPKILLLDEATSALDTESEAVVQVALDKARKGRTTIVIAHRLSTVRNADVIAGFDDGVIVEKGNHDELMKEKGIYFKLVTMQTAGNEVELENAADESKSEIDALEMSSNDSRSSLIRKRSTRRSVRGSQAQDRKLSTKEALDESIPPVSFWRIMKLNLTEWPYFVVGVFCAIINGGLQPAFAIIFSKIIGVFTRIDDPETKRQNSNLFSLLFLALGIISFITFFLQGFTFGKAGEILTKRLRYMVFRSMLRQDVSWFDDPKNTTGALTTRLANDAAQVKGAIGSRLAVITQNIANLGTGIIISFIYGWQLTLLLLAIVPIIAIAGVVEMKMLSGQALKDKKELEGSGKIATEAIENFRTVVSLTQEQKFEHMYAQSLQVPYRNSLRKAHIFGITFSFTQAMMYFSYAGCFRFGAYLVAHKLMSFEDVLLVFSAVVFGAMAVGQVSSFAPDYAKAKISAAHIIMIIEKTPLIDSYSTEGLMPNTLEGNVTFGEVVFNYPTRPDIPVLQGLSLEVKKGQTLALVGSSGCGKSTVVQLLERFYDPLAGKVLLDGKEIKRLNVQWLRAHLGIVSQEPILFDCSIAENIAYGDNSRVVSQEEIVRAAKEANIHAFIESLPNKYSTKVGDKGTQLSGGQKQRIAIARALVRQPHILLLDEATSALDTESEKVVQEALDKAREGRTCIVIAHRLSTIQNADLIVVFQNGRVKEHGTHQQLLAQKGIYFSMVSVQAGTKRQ

| Compound | FSC (Forward Scatter Count) | SSC (Side Scatter Count) |
| --- | --- | --- |
| CC(=O)C[Se]C(=O)c1cccs1 [K1, Se-(2-Oxopropyl) Thiophene-2-carboselenoate] | 2144 | 989 |
| CC(=O)C[Se]C(=O)c1ccccc1F [K2, Se-(2-Oxopropyl) 2-Fluorobenzoselenoate] | 1916 | 1061 |
| CC(=O)C[Se]C(=O)c1ccc(Br)cc1 [K3, Se-(2-Oxopropyl) 4-Bromobenzoselenoate] | 1706 | 982 |
| CC(=O)C[Se]C(=O)c1ccccc1C(F)(F)F [K4, Se-(2-Oxopropyl) 2-(Trifluoromethyl)benzoselenoate] | 1808 | 861 |

Same assay, conditions: 0.2 µM; rhodamine 123; FAR above 2 considered effective

| Compound | FAR (fluorescence activity ratio) |
| --- | --- |
| CC(=O)C[Se]C(=O)c1cccs1 [K1, Se-(2-Oxopropyl) Thiophene-2-carboselenoate] | 1.37 |
| CC(=O)C[Se]C(=O)c1ccccc1F [K2, Se-(2-Oxopropyl) 2-Fluorobenzoselenoate] | 1.41 |
| CC(=O)C[Se]C(=O)c1ccc(Br)cc1 [K3, Se-(2-Oxopropyl) 4-Bromobenzoselenoate] | 3.99 |
| CC(=O)C[Se]C(=O)c1ccccc1C(F)(F)F [K4, Se-(2-Oxopropyl) 2-(Trifluoromethyl)benzoselenoate] | 1.76 |

Same assay, conditions: 2 µM

| Compound | FSC (Forward Scatter Count) | SSC (Side Scatter Count) |
| --- | --- | --- |
| CC(=O)C[Se]C(=O)c1cccs1 [K1, Se-(2-Oxopropyl) Thiophene-2-carboselenoate] | 1866 | 1067 |
| CC(=O)C[Se]C(=O)c1ccccc1F [K2, Se-(2-Oxopropyl) 2-Fluorobenzoselenoate] | 1945 | 1156 |
| CC(=O)C[Se]C(=O)c1ccc(Br)cc1 [K3, Se-(2-Oxopropyl) 4-Bromobenzoselenoate] | 2040 | 1031 |
| CC(=O)C[Se]C(=O)c1ccccc1C(F)(F)F [K4, Se-(2-Oxopropyl) 2-(Trifluoromethyl)benzoselenoate] | 1830 | 1008 |

Same assay, conditions: 2 µM; rhodamine 123; FAR above 2 considered effective

| Compound | FAR (fluorescence activity ratio) |
| --- | --- |
| CC(=O)C[Se]C(=O)c1cccs1 [K1, Se-(2-Oxopropyl) Thiophene-2-carboselenoate] | 45.73 |
| CC(=O)C[Se]C(=O)c1ccccc1F [K2, Se-(2-Oxopropyl) 2-Fluorobenzoselenoate] | 37.35 |
| CC(=O)C[Se]C(=O)c1ccc(Br)cc1 [K3, Se-(2-Oxopropyl) 4-Bromobenzoselenoate] | 39.17 |
| CC(=O)C[Se]C(=O)c1ccccc1C(F)(F)F [K4, Se-(2-Oxopropyl) 2-(Trifluoromethyl)benzoselenoate] | 4.99 |

Target: T1, recombinant human P-gp membranes (Homo sapiens, UniProt P08183)
T1 construct: purchased Promega
Test: P-gp ATPase activity assay (Pgp-Glo)
Assay type: biochemical
Conditions: 25 µM; relative to basal activity
Method: P-glycoprotein ATPase activity was determined using the Pgp-Glo^TM Assay System (Promega, WI, USA). The assay was performed according to the manufacturer’s instructions. […] DMSO at 2% was applied as a solvent control. […] The reaction was stopped after adding 50 µL of ATP Detection Reagent. Then, the samples and controls were incubated at room temperature for 20 min. The emitted luciferase-generated luminescent signal was measured in a CLARIOstar Plus plate reader (BMG Labtech, UK) at 580 nm. The relative ATPase activity was calculated based on the ratio between the luminescence measured of the P-gp ATPase activity of each compound and the basal P-gp ATPase activity according to the following equation: Relative ATPase activity=Lumtreated−Lumuntreated/LumNa3VO4 − Lumuntreated
The effect of the tested compounds was evaluated according to the instructions of the manufacturer (Table 2).

T1 sequence (P08183 whole entry): as above

| Compound | Effect on P-gp ATPase activity |
| --- | --- |
| CC(=O)C[Se]C(=O)c1cccs1 [K1, Se-(2-Oxopropyl) Thiophene-2-carboselenoate] | inhibited the ATPase activity; also recorded: inhibitors of P-gp ATPase activity |
| CC(=O)C[Se]C(=O)c1ccc(Br)cc1 [K3, Se-(2-Oxopropyl) 4-Bromobenzoselenoate] | stimulated the P-gp ATPase with a comparable intensity to the reference verapamil |

System: MDR Colo 320 adenocarcinoma cells
Test: Apoptosis induction (Annexin V-FITC / propidium iodide)
Assay type: cell-based, human
Conditions: 2 µM
Method: The assay was carried out using an Annexin V-FITC Apoptosis Detection Kit Cat. No. PF 032 from Calbiochem (EMD Biosciences. Inc. La Jolla. CA), according to the manufacturer's instructions. […] The cell suspension was distributed into 1 mL aliquots (1 × 10^6 cells) into a 24-well microplate and incubated overnight at 37 °C, with 5% CO2. On the following day, the medium was removed and a fresh medium was added to the cells. The cells were incubated in the presence of Se-compounds for 3 h at 37 °C. […] After a 3 h induction period, the culture medium was removed, the cells were washed with PBS, and a fresh medium was added to the cells. The 24-well plates were incubated overnight at 37 °C, with 5% CO2. After the incubation, the supernatant was collected in a microfuge tube and 200 μL of 0.25 trypsin (Trypsin-Versene) was added to the wells until the cells detached from the surfaces of the wells. The cells were centrifuged at 2000× g for 2 min at room temperature, the supernatant was removed, and the cells were re-suspended in fresh serum-free medium. After this procedure, apoptosis assay was carried out according to the rapid protocol of the kit using Annexin V-FITC and propidium iodide staining. […] The data were analysed by FlowJo^TM software (BD Biosciences, San Jose, NJ, USA).

| Compound | Total Apoptotic Events (Early + Late, %) [%] |
| --- | --- |
| CC(=O)C[Se]C(=O)c1cccs1 [K1, Se-(2-Oxopropyl) Thiophene-2-carboselenoate] | 32.6 |
| CC(=O)C[Se]C(=O)c1ccccc1F [K2, Se-(2-Oxopropyl) 2-Fluorobenzoselenoate] | 34.2 |
| CC(=O)C[Se]C(=O)c1ccc(Br)cc1 [K3, Se-(2-Oxopropyl) 4-Bromobenzoselenoate] | 44.2 |
| CC(=O)C[Se]C(=O)c1ccccc1C(F)(F)F [K4, Se-(2-Oxopropyl) 2-(Trifluoromethyl)benzoselenoate] | 19.5 |

Same assay, conditions: 2 µM, 3 h induction

| Compound | Cell Death (%) Treated Sample-Untreated Sample [%] | Early Apoptosis (%) Treated Sample-Untreated Sample [%] | Late Apoptosis (%) Treated Sample-Untreated Sample [%] |
| --- | --- | --- | --- |
| CC(=O)C[Se]C(=O)c1cccs1 [K1, Se-(2-Oxopropyl) Thiophene-2-carboselenoate] | 2.15 | 3.7 | 28.9 |
| CC(=O)C[Se]C(=O)c1ccccc1F [K2, Se-(2-Oxopropyl) 2-Fluorobenzoselenoate] | 0.95 | 0.3 | 33.9 |
| CC(=O)C[Se]C(=O)c1ccc(Br)cc1 [K3, Se-(2-Oxopropyl) 4-Bromobenzoselenoate] | 0.00 | 18.6 | 25.6 |
| CC(=O)C[Se]C(=O)c1ccccc1C(F)(F)F [K4, Se-(2-Oxopropyl) 2-(Trifluoromethyl)benzoselenoate] | 5.95 | 3.4 | 16.1 |

Same assay, conditions: 2 µM; total apoptotic events relative to reference M627 (20 µM)

| Compound | Apoptosis Quotient (%) |
| --- | --- |
| CC(=O)C[Se]C(=O)c1cccs1 [K1, Se-(2-Oxopropyl) Thiophene-2-carboselenoate] | 66.0 |
| CC(=O)C[Se]C(=O)c1ccccc1F [K2, Se-(2-Oxopropyl) 2-Fluorobenzoselenoate] | 69.2 |
| CC(=O)C[Se]C(=O)c1ccc(Br)cc1 [K3, Se-(2-Oxopropyl) 4-Bromobenzoselenoate] | 89.5 |
| CC(=O)C[Se]C(=O)c1ccccc1C(F)(F)F [K4, Se-(2-Oxopropyl) 2-(Trifluoromethyl)benzoselenoate] | 39.5 |

System: HaCaT cell line
Test: Toxicity on HaCaT cells (IC10 used as dose)
Assay type: cell-based
Conditions: Homo sapiens, concentration inhibiting 10% of the population, highest non-toxic concentration, read-out: Dose IC10
Method: The activity of selenoesters was tested on several cancer cell lines, including HepG2 (hepatocellular carcinoma, CCL-23TM, ATCC); HeLa (cervical adenocarcinoma, CCL-2TM, ATCC); B16 (skin melanoma, CCL-6322TM, ATCC); and a non-cancerous cell line, HDF (human dermal fibroblasts, Sigma-Aldrich). HepG2, HeLa, B16, and HDF cell lines were cultivated in EMEM medium supplemented with 10% FBS, 2 mM L-glutamine, and 1% penicillin-streptomycin mixture. The HaCaT cell line was cultivated in DMEM medium supplemented with 10% FBS and 1% penicillin-streptomycin mixture. All of the cells were cultivated in a CO2 incubator (5% CO2, 37 °C). Twice per week, the cell lines were passaged according to a standardized protocol with a trypsin-EDTA solution. […]
Wound healing activity of selenoesters was evaluated as the ability of the cells to migrate and close the gap created on the monolayer of human keratinocytes (HaCaT cell line). The tested substances were applied in the highest possible non-toxic concentration (IC10, concentration inhibiting 10% of the population). In general, ketone-selenoesters were more toxic (except K4 and K1) than cyano-selenoesters (except N4); therefore, they were applied at lower doses (0.17–0.30 µM) when compared to cyanoselenoesters (0.36–0.64 µM). Compounds K1, K4, and N4 were applied at a concentration of 0.30, 0.46, and 0.20 µM, respectively. As could be seen in Table 8, all ketone-selenoesters stimulated wound healing more effectively in comparison to both untreated control (p < 0.0000005) and allantoin (p < 0.00005). […] Only samples N1, N2, N4, and N7 closed effectively the damaged wound in 24 h, with the gap closure around 70%.

| Compound | IC10 [µM] |
| --- | --- |
| CC(=O)C[Se]C(=O)c1cccs1 [K1, Se-(2-Oxopropyl) Thiophene-2-carboselenoate] | 0.3 |
| CC(=O)C[Se]C(=O)c1ccccc1F [K2, Se-(2-Oxopropyl) 2-Fluorobenzoselenoate] | 0.2 |

Same assay, conditions: Homo sapiens, read-out: Dose IC10 (µM)

| Compound | IC10 [µM] |
| --- | --- |
| CC(=O)C[Se]C(=O)c1ccc(Br)cc1 [K3, Se-(2-Oxopropyl) 4-Bromobenzoselenoate] | 0.24 |
| CC(=O)C[Se]C(=O)c1ccccc1C(F)(F)F [K4, Se-(2-Oxopropyl) 2-(Trifluoromethyl)benzoselenoate] | 0.46 |

System: HepG2 (hepatocellular carcinoma)
Test: Cytotoxicity on HepG2 cells
Assay type: cell-based, human
Conditions: ratio IC50 non-tumour cells / IC50 cancer cells

| Compound | SI MRC-5/HepG2 |
| --- | --- |
| CC(=O)C[Se]C(=O)c1ccccc1F [K2, Se-(2-Oxopropyl) 2-Fluorobenzoselenoate] | 1.1 |

System: B16 (skin melanoma)
Test: Cytotoxicity on B16 cells
Assay type: cell-based, murine
Conditions: ratio IC50 non-tumour cells / IC50 cancer cells

| Compound | SI MRC-5/B16 |
| --- | --- |
| CC(=O)C[Se]C(=O)c1cccs1 [K1, Se-(2-Oxopropyl) Thiophene-2-carboselenoate] | 2.6 |
| CC(=O)C[Se]C(=O)c1ccccc1F [K2, Se-(2-Oxopropyl) 2-Fluorobenzoselenoate] | 2.1 |
| CC(=O)C[Se]C(=O)c1ccc(Br)cc1 [K3, Se-(2-Oxopropyl) 4-Bromobenzoselenoate] | 1.3 |
| CC(=O)C[Se]C(=O)c1ccccc1C(F)(F)F [K4, Se-(2-Oxopropyl) 2-(Trifluoromethyl)benzoselenoate] | 1.4 |
